Publication PMC9558053, “Development of a novel high-throughput screen for the identification of new inhibitors of protein S-acylation” (The Journal of Biological Chemistry, 2022)

Target: T1, human zDHHC15 (Homo sapiens, UniProt Q96MV8)
T1 construct: expressed in transfected cells; host or cells: HEK293T
T1 sequence (Q96MV8 1-337): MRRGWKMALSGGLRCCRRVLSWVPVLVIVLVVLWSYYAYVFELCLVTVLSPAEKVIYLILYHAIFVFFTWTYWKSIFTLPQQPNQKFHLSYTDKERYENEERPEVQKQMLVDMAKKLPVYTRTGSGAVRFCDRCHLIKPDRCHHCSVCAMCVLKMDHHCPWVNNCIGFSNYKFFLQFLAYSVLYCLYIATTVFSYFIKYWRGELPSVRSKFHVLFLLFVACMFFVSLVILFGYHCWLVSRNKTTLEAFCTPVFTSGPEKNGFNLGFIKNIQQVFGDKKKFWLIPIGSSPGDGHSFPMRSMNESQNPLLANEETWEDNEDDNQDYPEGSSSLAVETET
Assay: GFP-SNAP25b S-acylation in HEK293T cells co-expressing zDHHC15
Format: cell-based
Settings: HEK-293T; in cellulo HEK293T, compound 25 μM; read-out: SNAP25 S-acylation inhibition (%), zDHHC15
Description: We next investigated whether the identified compounds were effective at inhibiting zDHHC enzyme isoforms other than zDHHC2 (Fig. 6 and Table 1). […] We therefore treated cells coexpressing GFP-SNAP25 and each of these zDHHC enzymes with 25 μM of TTZ-1 and TTZ-2 and studied the subsequent effect on SNAP25 S-acylation. […] Importantly, the level of enzyme expression was unaffected by the compounds. […] As any major differences in the expression levels of the different enzymes could in theory contribute to the apparent differential effects of TTZ-1 and TTZ-2, we directly compared the expression of zDHHC2, zDHHC3, zDHHC7, zDHHC15, and zDHHC17 when transfected in HEK293T cells together with GFP-SNAP25.
Figure 6 Activity of TTZ-1 and TTZ-2 against SNAP25 S-acylation by human zDHHC2, zDHHC3, zDHHC7, zDHHC15, and zDHHC17 expressed in mammalian cells.A–E, HEK293T cells were transfected with a plasmid encoding GFP-SNAP25b together with either a control plasmid pEF-BOS-HA (pEF) or a plasmid encoding either HA-tagged human zDHHC2 (zD2) (A), zDHHC3 (zD3) (B), zDHHC7 (zD7) (C), zDHHC15 (zD15) (D), or zDHHC17 (zD17) (E) for 24 h. […] Three independent experiments were performed either in duplicate or in triplicate, and the quantification data were gathered on the graphs below each set of membranes. […]

`CCCCCCCOc1ccc(C(=O)Nc2cccc3c2OC(c2nnn[nH]2)CN3)cc1` (centres unmarked) [TTZ-1, N-(2-(1H-Tetrazol-5-yl)-3,4-dihydro-2H-benzo[b][1,4]oxazin-8-yl)-4-(heptyloxy)benzamide] was tested. Which inhibition at 25 µM did it give?
The inhibition at 25 µM was 112 ± 6%.

How did the inhibition at 25 µM turn out when `O=C(Nc1cccc2c1OC(c1nnn[nH]1)CN2)c1ccc(OCCCCc2ccccc2)cc1` (centres unmarked) [TTZ-2, N-(2-(1H-Tetrazol-5-yl)-3,4-dihydro-2H-benzo[b][1,4]oxazin-8-yl)-4-(4-phenylbutoxy)benzamide] was run?
The inhibition at 25 µM was 93 ± 6%.
